Experimental data: patent US9453028B2, “Protein kinase C inhibitors and uses thereof” (Rigel Pharmaceuticals, Inc., priority 2009, dated 2016)

Assays:
[1] = test system: Human primary T cell; assay: IL-2 ELISA, human primary T cell, anti-CD3+CD28+ whole cell assay; assay type: cell-based; conditions: IL-2 by ELISA, human primary T cells stimulated with anti-CD3+CD28
Procedure: 2. IL-2 ELISA, Human Primary T Cell, Anti-CD3+CD28+ Assays
Human primary T cells were prepared as follows. Whole blood was obtained from a healthy volunteer, mixed 1:1 with PBS, layered on to Ficoll Hypaque (Amersham Pharmacia Biotech, Piscataway, N.J., Catalog #17-1440-03) in 2:1 blood/PBS:ficoll ratio and centrifuged for 30 minutes at 4° C. at 1750 rpm. The cells at the serum:ficoll interface were recovered and washed twice with 5 volumes of PBS. These freshly isolated human peripheral blood mononuclear cells were cultured in Yssel's medium containing 40 U/mL IL2 in a flask pre-coated with 1 μg/mL αCD3 and 5 μg/mL αCD28 (Anti-Human CD3, BD Pharmingen Catalog #555336, Anti-Human CD28, Beckman Coulter Catalog #1M1376). The cells were stimulated for 3-4 days, then transferred to a fresh flask and maintained in RPMI (RPMI-1640 with L-Glutamine; Mediatech, Inc., Herndon Va., cat. #10-040-CM) with 10% FBS and 40 U/mL IL-2. The primary T-cells were then washed twice with PBS to remove the IL-2.
Human primary T cells (100,000 cells per well) were pre-incubated with or without test compound in Yssel's medium for 1 hr at 37° C. Cells were then stimulated by transferring them to round-bottom 96-well plates pre-coated with 1 μg/ml αCD3 and 5 μg/ml αCD28. For counter assay, cells were instead stimulated by adding 8× stock solutions of PMA and ionomycin in Yssels (for final concentrations of 0.5 ng/ml PMA and 0.1 μM ionomycin, both from Calbiochem). Cells were incubated at 37° C. for 24 hours before 100 μL supernatants were harvested for quantification of IL-2 by ELISA using Human IL-2 Duoset ELISA Kit from R and D Systems, Cat. # DY202E.
(§1) Several subject compounds were tested according to procedures in the “Characterization of Functional Properties” section. PKC kinase activity was measured using the procedure Section A.1 (Protein Kinase C assay) with the appropriate isoform. The whole cell assay was run according to the procedure in Section A.2 (IL-2 ELISA, Human primary T cell, anti-CD3+CD28+ Assays). […] Blank entries indicate that the IC50 was not determined.

[2] = target: T1, PKC-alpha (Homo sapiens, UniProt P17252); assay: Protein Kinase C assay (fluorescence polarization), PKC-alpha; assay type: biochemical
T1 construct: purchased Oxford Biomedical Research
Procedure: (§2) The inhibition of PKC activity was measured by monitoring the production of phosphorylated peptide by fluorescence polarization at different concentrations of the inhibitor. Reactions were carried out in 96-well plate format with a total volume of 20 μL containing 20 mM HEPES, pH 7.4, 5 mM MgCl2, 0.2 mM CaCl2, 1 mM DTT, 0.02% Brij-35, 0.1 mg/mL phosphatidylserine, 0.02 mg/mL dioleoyl-sn-glycerol and 5 μM each of ATP and the peptide substrate. Compounds were first diluted serially in DMSO and then transferred to a solution containing the above concentrations of HEPES, MgCl2, CaCl2, DTT, and Brij-35 to yield 5× compound solutions in 2% DMSO, which was then added to the reaction solution. Reactions were initiated by the addition of PKC at a typical concentration as described in the table below, and then allowed to incubate at room temperature for 20 minutes. At the end of this time, a combination of quench (EDTA) and detection (peptide tracer and antibody) reagents was added using the protocol of Invitrogen P2748 (Carlsbad, Calif.), a Protein Kinase C Fluorescence polarization Assay Kit. After a 30 minute period of incubation, the amount of phosphorylated peptide generated was measured by fluorescence polarization (Ex=485 nm, Em=535 nm) using a Tecan Polarian instrument (Switzerland).
Human recombinant PKC α is obtained from Oxford Biomedical Research and is used under the assay conditions as described under Section A.1 above.
as §1

[3] = target: T2, PKC-beta (Homo sapiens, UniProt P05771); assay: Protein Kinase C assay (fluorescence polarization), PKC-beta; assay type: biochemical
T2 construct: purchased Oxford Biomedical Research
Procedure: as §2
Human recombinant PKC β1 is obtained from Oxford Biomedical Research and is used under the assay conditions as described under Section A.1 above.
as §1

[4] = target: T3, PKC-delta (Homo sapiens, UniProt Q05655); assay: Protein Kinase C assay (fluorescence polarization), PKC-delta; assay type: biochemical
T3 construct: purchased Oxford Biomedical Research
Procedure: as §2
Human recombinant PKC δ is obtained from Oxford Biomedical Research and is used under the assay conditions as described under Section A.1 above.
as §1

[5] = target: T4, PKC-epsilon (Homo sapiens, UniProt Q02156); assay: Protein Kinase C assay (fluorescence polarization), PKC-epsilon; assay type: biochemical
T4 construct: purchased Upstate Biotechnologies, Temecula, CA 14-518
T4 sequence (Q02156 1-737): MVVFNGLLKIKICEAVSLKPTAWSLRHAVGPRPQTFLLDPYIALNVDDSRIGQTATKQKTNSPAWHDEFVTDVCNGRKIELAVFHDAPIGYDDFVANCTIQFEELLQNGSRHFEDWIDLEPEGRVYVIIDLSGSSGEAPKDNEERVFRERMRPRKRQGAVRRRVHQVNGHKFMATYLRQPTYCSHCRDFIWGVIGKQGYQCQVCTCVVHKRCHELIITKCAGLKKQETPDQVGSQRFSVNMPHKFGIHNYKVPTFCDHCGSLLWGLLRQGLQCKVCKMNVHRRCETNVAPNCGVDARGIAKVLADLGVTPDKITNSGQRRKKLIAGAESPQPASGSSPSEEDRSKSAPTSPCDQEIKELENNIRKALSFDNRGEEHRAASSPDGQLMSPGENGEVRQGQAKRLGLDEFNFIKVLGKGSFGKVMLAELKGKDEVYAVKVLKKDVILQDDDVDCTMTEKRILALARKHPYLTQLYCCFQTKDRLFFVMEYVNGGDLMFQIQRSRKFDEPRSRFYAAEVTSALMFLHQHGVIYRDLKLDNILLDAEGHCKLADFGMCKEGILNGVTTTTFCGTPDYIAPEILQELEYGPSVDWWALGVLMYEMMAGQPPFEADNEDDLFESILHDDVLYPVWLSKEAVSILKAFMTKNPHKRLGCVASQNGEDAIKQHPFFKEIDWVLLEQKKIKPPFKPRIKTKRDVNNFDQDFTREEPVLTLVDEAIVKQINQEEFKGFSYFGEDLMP
Procedure: as §2
Human recombinant PKC […] is obtained from Oxford Biomedical Research and is used under the assay conditions as described under Section A.1 above.
as §1

[6] = target: T5, PKC-theta (Homo sapiens, UniProt Q04759); assay: Protein Kinase C assay (fluorescence polarization), PKC-theta; assay type: biochemical
T5 construct: purchased Upstate Biotechnologies, Temecula, CA 14-444
Procedure: as §2
Human recombinant PKC θ is used under the assay conditions as described above.
as §1

T5 sequence (Q04759 whole entry): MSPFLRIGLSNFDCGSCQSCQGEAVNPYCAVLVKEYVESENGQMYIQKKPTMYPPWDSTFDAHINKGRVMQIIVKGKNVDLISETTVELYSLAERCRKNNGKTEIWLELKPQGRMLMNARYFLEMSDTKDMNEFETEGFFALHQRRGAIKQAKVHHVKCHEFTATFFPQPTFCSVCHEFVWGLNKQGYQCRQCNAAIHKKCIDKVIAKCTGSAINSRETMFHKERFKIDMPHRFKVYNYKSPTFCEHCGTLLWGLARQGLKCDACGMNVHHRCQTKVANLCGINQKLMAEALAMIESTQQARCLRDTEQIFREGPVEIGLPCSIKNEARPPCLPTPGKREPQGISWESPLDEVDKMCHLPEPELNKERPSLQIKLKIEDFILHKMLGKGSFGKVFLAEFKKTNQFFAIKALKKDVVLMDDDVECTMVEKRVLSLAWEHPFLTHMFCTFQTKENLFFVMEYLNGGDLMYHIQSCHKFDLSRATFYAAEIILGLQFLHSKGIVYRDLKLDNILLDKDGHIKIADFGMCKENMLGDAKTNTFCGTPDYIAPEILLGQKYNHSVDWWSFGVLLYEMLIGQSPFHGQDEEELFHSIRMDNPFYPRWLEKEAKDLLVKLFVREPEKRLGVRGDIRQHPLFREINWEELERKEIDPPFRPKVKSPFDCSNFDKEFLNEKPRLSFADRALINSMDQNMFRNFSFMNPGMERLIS
T3 sequence (Q05655 whole entry): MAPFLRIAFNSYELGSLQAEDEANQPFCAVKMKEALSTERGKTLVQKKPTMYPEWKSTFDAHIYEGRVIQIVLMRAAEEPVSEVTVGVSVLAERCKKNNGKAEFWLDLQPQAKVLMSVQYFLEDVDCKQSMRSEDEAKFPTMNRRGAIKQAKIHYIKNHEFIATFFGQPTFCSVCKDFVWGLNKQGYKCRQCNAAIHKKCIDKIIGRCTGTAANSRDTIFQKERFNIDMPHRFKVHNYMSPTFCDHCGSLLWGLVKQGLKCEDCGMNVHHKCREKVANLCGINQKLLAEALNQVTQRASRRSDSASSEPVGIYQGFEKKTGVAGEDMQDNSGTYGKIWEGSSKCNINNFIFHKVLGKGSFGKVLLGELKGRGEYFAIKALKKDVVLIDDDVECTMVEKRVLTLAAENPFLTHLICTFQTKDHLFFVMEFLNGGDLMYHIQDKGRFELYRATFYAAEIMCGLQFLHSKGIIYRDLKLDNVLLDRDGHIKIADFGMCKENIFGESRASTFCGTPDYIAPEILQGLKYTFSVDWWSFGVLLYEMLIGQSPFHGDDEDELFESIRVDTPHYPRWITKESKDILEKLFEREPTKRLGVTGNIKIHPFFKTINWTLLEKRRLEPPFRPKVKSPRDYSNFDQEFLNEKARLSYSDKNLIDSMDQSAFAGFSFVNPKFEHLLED
T2 sequence (P05771 whole entry): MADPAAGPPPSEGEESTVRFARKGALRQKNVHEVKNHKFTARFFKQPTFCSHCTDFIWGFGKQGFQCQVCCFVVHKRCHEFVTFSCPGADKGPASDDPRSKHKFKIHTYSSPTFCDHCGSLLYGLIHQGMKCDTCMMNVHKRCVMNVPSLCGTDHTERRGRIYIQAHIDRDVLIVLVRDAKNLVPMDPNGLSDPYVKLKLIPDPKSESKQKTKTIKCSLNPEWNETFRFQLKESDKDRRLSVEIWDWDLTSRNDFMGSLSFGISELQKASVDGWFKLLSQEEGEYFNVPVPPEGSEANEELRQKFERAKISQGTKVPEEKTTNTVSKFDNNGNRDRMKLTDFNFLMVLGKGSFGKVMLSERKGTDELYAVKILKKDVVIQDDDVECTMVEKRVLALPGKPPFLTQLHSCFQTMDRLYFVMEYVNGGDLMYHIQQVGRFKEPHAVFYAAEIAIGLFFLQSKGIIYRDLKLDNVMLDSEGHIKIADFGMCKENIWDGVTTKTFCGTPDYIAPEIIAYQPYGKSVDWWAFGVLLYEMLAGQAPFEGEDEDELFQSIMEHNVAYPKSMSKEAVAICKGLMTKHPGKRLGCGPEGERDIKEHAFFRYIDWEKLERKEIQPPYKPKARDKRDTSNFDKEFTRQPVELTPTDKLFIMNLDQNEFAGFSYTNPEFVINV

Molecule	IC50 ([1]; T-cell) [µM]	IC50 [2] [µM]	IC50 [3] [µM]	IC50 [4] [µM]	IC50 [5] [µM]	IC50 [6] [µM]	IC50 [1] [µM]
CC1(C)CC(Nc2nc(Nc3ccc4c(c3)-c3nnnn3C(C)(C)O4)ncc2F)CC(C)(C)N1 [Compound 1-9, N2-(5,5-dimethyl-5H-benzo[e]tetrazolo[1,5-c][1,3]oxazin-9-yl)-5-fluoro-N4-(2,2,6,6-tetramethylpiperidin-4-yl)pyrimidine-2,4-diamine]	0.5 to 1						
CN1C(C)(C)CC(Nc2nc(Nc3ccc4c(c3)-n3nnnc3C(C)(C)O4)ncc2F)CC1(C)C [Compound 1-8, N2-(4,4-dimethyl-4H-benzo[b]tetrazolo[1,5-d][1,4]oxazin-8-yl)-5-fluoro-N4-(1,2,2,6,6-pentamethylpiperidin-4-yl)pyrimidine-2,4-diamine]	< 0.25	< 0.25	< 0.25	< 0.25	< 0.25	< 0.25	
CN1C(C)(C)CC(Nc2nc(Nc3ccc4c(c3)-n3nnnc3CO4)ncc2F)CC1(C)C [Compound 1-2, N2-(4H-benzo[b]tetrazolo[1,5-d][1,4]oxazin-8-yl)-5-fluoro-N4-(1,2,2,6,6-pentamethylpiperidin-4-yl)pyrimidine-2,4-diamine]	< 0.25	< 0.25	< 0.25	< 0.25	< 0.25	< 0.25	
CC1Oc2ccc(Nc3ncc(F)c(NC4CC(C)(C)N(C)C(C)(C)C4)n3)cc2-n2nnnc21 (stereo not shown) [Compound 1-18]	< 0.25	< 0.25	< 0.25	< 0.25	< 0.25	< 0.25	
CN1C(C)(C)CC(Nc2nc(Nc3ccc4c(c3)-n3nnnc3C(F)(F)O4)ncc2F)CC1(C)C [Compound 1-6, N2-(4,4-difluoro-4H-benzo[b]tetrazolo[1,5-d][1,4]oxazin-8-yl)-5-fluoro-N4-(1,2,2,6,6-pentamethylpiperidin-4-yl)pyrimidine-2,4-diamine]	0.25 to 0.5	< 0.25	< 0.25	< 0.25	< 0.25	< 0.25	
CC1(C)CC(Nc2nc(Nc3ccc4c(c3)-n3nnnc3C3(CCC3)O4)ncc2F)CC(C)(C)N1 [Compound 1-11, N2-{2,1-Spiro-butane-4H-tetrazolo[5,1-c][1,4]benzoxazin-8-yl}-5-fluoro-N4-(2,2,6,6-tetramethylpiperidin-4-yl)-2,4-pyrimidinediamine]	< 0.25	< 0.25	< 0.25	< 0.25	< 0.25	< 0.25	
CC1Oc2ccc(Nc3ncc(F)c(NC4CC(C)(C)NC(C)(C)C4)n3)cc2-n2nnnc21 (stereo not shown) [Compound 1-17]	< 0.25	< 0.25	< 0.25	< 0.25	< 0.25	< 0.25	
CC1(C)CC(Nc2nc(Nc3ccc4c(c3)-n3nnnc3CO4)ncc2F)CC(C)(C)N1 [Compound 1-1, N2-(4H-benzo[b]tetrazolo[1,5-d][1,4]oxazin-8-yl)-5-fluoro-N4-(2,2,6,6-tetramethylpiperidin-4-yl)pyrimidine-2,4-diamine]	< 0.25	< 0.25	< 0.25	< 0.25	< 0.25	< 0.25	
CC1(C)CC(Nc2nc(Nc3ccc4c(c3)-n3nnnc3C(F)(F)O4)ncc2F)CC(C)(C)N1 [Compound 1-5, N2-(4,4-difluoro-4H-benzo[b]tetrazolo[1,5-d][1,4]oxazin-8-yl)-5-fluoro-N4-(2,2,6,6-tetramethylpiperidin-4-yl)pyrimidine-2,4-diamine]	0.5 to 1	< 0.25	< 0.25	< 0.25	< 0.25	< 0.25	
CC1C[C@@H](CNc2nc(Nc3ccc4c(c3)-n3nnnc3C(C)(C)O4)ncc2F)C(C)(C)N1 (stereo partly drawn) [Compound 2-7, N2-(4,4-dimethyl-4H-benzo[b]tetrazolo[1,5-d][1,4]oxazin-8-yl)-5-fluoro-N4-(((3S)-2,2,5-trimethylpyrrolidin-3-yl)methyl)pyrimidine-2,4-diamine]		< 0.25	< 0.25	< 0.25	< 0.25	< 0.25	< 0.25
N2-(4H-benzo[b]pyrrolo[1,2-d][1,4]oxazin-8-yl)-5-fluoro-N4-(2,2,6,6-tetramethylpiperidin-4-yl)pyrimidine-2,4-diamine [Compound 1-3]							1 to 5
N2-(4H-benzo[b]pyrrolo[1,2-d][1,4]oxazin-8-yl)-5-fluoro-N4-(1,2,2,6,6-pentamethylpiperidin-4-yl)pyrimidine-2,4-diamine [Compound 1-4]							1 to 5
CN1C(C)(C)CC(CNc2nc(Nc3ccc4c(c3)-n3nnnc3CO4)ncc2F)C1(C)C (stereo not shown) [Compound 2-2, N2-(4H-benzo[b]tetrazolo[1,5-d][1,4]oxazin-8-yl)-5-fluoro-N4-((1,2,2,5,5-pentamethylpyrrolidin-3-yl)methyl)pyrimidine-2,4-diamine]	< 0.25	< 0.25	< 0.25	< 0.25	< 0.25	< 0.25	
CC1C[C@H](CNc2nc(Nc3ccc4c(c3)-n3nnnc3C(C)(C)O4)ncc2F)C(C)(C)N1 (stereo partly drawn) [Compound 2-8, N2-(4,4-dimethyl-4H-benzo[b]tetrazolo[1,5-d][1,4]oxazin-8-yl)-5-fluoro-N4-(((3R)-2,2,5-trimethylpyrrolidin-3-yl)methyl)pyrimidine-2,4-diamine]		< 0.25	0.25 to 0.5	< 0.25	< 0.25	< 0.25	0.25 to 0.5
CN1C(C)(C)CC(Nc2nc(Nc3ccc4c(c3)-c3nnnn3C(C)(C)O4)ncc2F)CC1(C)C [Compound 1-10, N2-(5,5-dimethyl-5H-benzo[e]tetrazolo[1,5-c][1,3]oxazin-9-yl)-5-fluoro-N4-(1,2,2,6,6-pentamethylpiperidin-4-yl)pyrimidine-2,4-diamine]	< 0.25						
